Legend:
[1] = cited from earlier work
[2] = test system: GSK-3β; assay: GSK-3β kinase activity in skeletal muscle of treated mdx mice; format: in vivo, mouse; details: for reduction of GSK-3β activity compared to mdx-S control: metformin 100 mg/kg/day by osmotic pump
Procedure: (§1) Studies were conducted in which metformin was administered to 4-week old mdx mice followed by extensive biochemical and morphologic analysis. The 4-week age group coincides with the early muscle degeneration/regeneration cycle and as such tests the ability of metformin to limit the degeneration process that begins at 3-4 weeks of age in this murine model of DMD. Metformin delivery was accomplished with the use of osmotic pump technology (Alzet). Alzet osmotic pumps are produced in a variety of formats ideal for use in murine models. The pumps were preloaded with metformin and then surgically implanted in a subcutaneous position suitable for long-term delivery, i.e. mid-scapular region. The Alzet osmotic pump was loaded with a metformin concentration selected to deliver 100 mg/kg/body wt per day, per standard diabetic treatment regimes, at 28 days of continuous infusion (Misra 2008). A skilled person will appreciate that metformin could be given orally or by other routes of administration to humans but the osmotic pump is a convenient way to regulate administration over the 28 days of the murine model. Control animals were implanted with osmotic pumps containing saline. Given that metformin is an anti-hyperglycemic agent, blood glucose levels were measured.
(§2) Wild-type (C57BL-10) and mdx mice (C57BL/10ScSn-DMD/^mdx) were purchased from Jackson Laboratories (Bar Harbour, Me.) and housed in the University of Ottawa Animal Care Facility. Mice aged 3-4 weeks (peak necrotic stage) were surgically implanted with an (Alzet) osmotic mini-pump containing metformin or insulin for 14 and 28 days. Animals were randomly assigned to experimental or control treatment groups. Depending on the experiment, Mdx mice either received 100 mg/kg/d of metformin (Aldrich) (mdx-M) or 0.75 U of insulin (Sigma) (mdx-I). […]
(§3) Muscle samples were homogenized and quantified for protein concentration using Brafford Assay. […] Incorporation of radioactivity was counted using liquid scintillation counter. […]

[3] = test system: mdx mice; assay: H&E myofiber pathology and morphometry in mdx skeletal muscle; format: in vivo, mouse; details: for proportion of smaller myofibers (CSA<1500 μm^2): mdx-M
Procedure: as §1
(§4) Wild-type (C57BL-10) and mdx mice (C57BL/10ScSn-DMD/^mdx) were purchased from Jackson Laboratories (Bar Harbour, Me.) and housed in the University of Ottawa Animal Care Facility. Mice aged 3-4 weeks (peak necrotic stage) were surgically implanted with an (Alzet) osmotic mini-pump containing metformin or insulin for 14 and 28 days. Animals were randomly assigned to experimental or control treatment groups. Depending on the experiment, Mdx mice either received 100 mg/kg/d of metformin (Aldrich) (mdx-M) or 0.75 U of insulin (Sigma) (mdx-I). Drug concentrations were based on the effective dose range used in diabetic mouse models (Bailey and Puah, 1986; Cohen et al., 2004)
(§5) Control groups were surgically implanted with the mini-pump containing saline (wild type [WT-S], mdx-S). Following completion of drug treatment, animals were sacrificed by cervical dislocation and skeletal muscles (tibialis anterior TA, diaphragm DIA, gastrocnemius Gastro, and Soleus) were harvested. For analysis of biochemistry, skeletal muscles were snap frozen in liquid nitrogen. For preparation of paraffin sections skeletal muscles were fixed in formalin.
Muscle sections were rehydrated in xylene followed by descending alcohols (100%, 95%, 80%), incubated in Shandon Instant Hematoxylin (Fisher Scientific) for 3 mins, washed 1 min, incubated in Eosin (Fisher Scientific) for 3 mins and then dehydrated in ascending alcohols followed by incubation in xylene. Stained sections were mounted with permount (Fisher Scientific). Quantification of morphometric parameters was performed on ˜1000 fibers per muscle.

[4] = test system: mdx mice; assay: Rotorod test of motor performance in mdx mice; format: in vivo, mouse; details: mdx mice treated 28 days, by the 4th trial; 15 rpm start, 0.1 rpm/s acceleration
Procedure: Metformin treated mdx-mice display improved motor performance compared to saline-treated mdx-mice. Mice (mdx) 3-4 weeks of age were treated with metformin or saline for 28 days according to the protocol described above. At the end of the treatment phase, a rotorod test was performed, which was repeated daily for 3 consecutive days. The mice were 7-8 weeks of age when tested, thus young adults. The initial rotorod speed for each trial was 15 rpm with gradual acceleration at a rate of 0.1 rpm per second. Mean fall latency time refers to the average amount of time the mice could run on the rotating rod (seconds). As soon as the animals fell from the rod, the time was stopped. The average value shown represents the average of each trial (1-4) performed for 3 consecutive days. The rotorod test is a behavioural test of motor coordination or performance and fatigue resistance or exercise tolerance, where the earlier time points are essentially an adaptation to the rotorod.

[5] = test system: AKT; assay: AKT kinase activity in skeletal muscle of treated mdx mice; format: in vivo, mouse; details: for increase in AKT kinase activity compared to mdx-S control: metformin 100 mg/kg/day by osmotic pump
Procedure: as §1, §2, §3

[6] = test system: DGC; assay: DGC component and utrophin protein levels and sarcolemmal distribution in mdx muscle; format: in vivo, mouse
Procedure: as §1, §4, §5
Paraffin embedded muscles were section transversely (10 µm) and deparaffinized in descending alcohols, blocked with 3% BSA and permeabilized in 0.1% triton in PBS for 1 h at RT. Sections were then incubated in primary antibodies against GLUT4 (Chemicon), Laminin (Sigma), Utrophin, 13-Dystroglycan and γ-Sarcoglycan were purchased from Vector Laboratories. In order to amplify primary antibody signal the avidin/biotin complex technique was performed on muscle sections. As well primary mouse antibodies were diluted in M.O.M diluent (M.O.M. Basic Kit, Vector Laboratories). In brief, sections were incubated with primary antibody overnight at 4° C. then incubated in biotinylated secondary antibody for 30 mins at RT, followed by incubation in FITC-streptoavidin conjugated secondary antibody (Molecular Probes) for 1 h at RT. Sections were then washed and mounted using fluorescence mounting medium (DAKO).
Muscle samples were homogenized, lyzed and quantified for protein concentration using Brafford Assay. Equal concentrations of protein samples were resolved by 6-8% SDS-PAGE and transferred to nitrocellulose membranes. Primary antibodies against IRS, IRS^y941, IRS^S307, anti-MHC (clone MF20) were used at a dilution of 1:500. Rabbit polyclonal antibodies were detected using horseradish peroxidase-conjugated anti-rabbit at dilution of 1:5000. Immunoblots were developed using with Supersignal West Pico Chemiluminescence substrate.

[7] = test system: mdx mice; assay: Glycogen deposition by periodic acid Schiff staining in mdx skeletal muscle; format: in vivo, mouse; details: TA muscle of mdx mice, metformin treatment, PAS staining
Procedure: as §1, with “measured. […]” for “measured.”

[8] = test system: GLUT4; assay: GLUT4 localization by immunohistochemistry in mdx skeletal muscle; format: in vivo, mouse
Procedure: as §1, with “A skilled person will appreciate that metformin could be given orally or by other routes of administration to humans but the osmotic pump is a convenient way to regulate administration over the 28 days of the murine model. Control animals were implanted with osmotic pumps containing saline.” left out, “measured. […]” for “measured.”
Paraffin embedded muscles were section transversely (10 µm) and deparaffinized in descending alcohols, blocked with 3% BSA and permeabilized in 0.1% triton in PBS for 1 h at RT. […] Sections were then washed and mounted using fluorescence mounting medium (DAKO).

[9] = test system: mdx mice; assay: Evans blue dye uptake (sarcolemmal integrity) in mdx muscle; format: in vivo, mouse; details: metformin-treated mdx, 28 days; untreated (MS) 42%
Procedure: as §4
To measure sarcolemmal integrity, treated and untreated mdx mice were injected intravenously through the dorsal tail vein with 50 ul/10 g of 1% Evans Blue Dye (EBD, Sigma) in sterilized phosphate-buffered saline (PBS 7.4). Skeletal muscle was harvested 6-8 hrs post-injection and prepared for immunofluorescence as previously described. To visualize sarcolemmal membrane, EBD infiltrated fibers sections were incubated in anti-laminin (Sigma) at 4° C. overnight and then mounted in fluorescent mounting medium (DAKO).

[10] = test system: AMPK; assay: AMPK kinase activity in skeletal muscle of treated mdx mice; format: in vivo, mouse; details: metformin 100 mg/kg/day by osmotic pump, 28 days
Procedure: as §1, with “measured. […]” for “measured.”

[11] = test system: mdx mice; assay: Monitoring of blood glucose and adverse health effects during drug treatment of mdx mice; format: in vivo, mouse; details: metformin 100 mg/kg/day, throughout drug treatment
Procedure: as §1

[12] = immunoblot, compared to mdx-Saline control
[13] = immunohistochemistry, mdx myofibers
[14] = 28-day insulin delivery (0.75 U)

Q: For `CN(C)C(=N)NC(=N)N` [Metformin, N,N-dimethylimidodicarbonimidicdiamide], which “incidence of lactic acidosis” value ([1]; patients) is on record?
A: about 0.03 cases per 1000 patients years of treatment

Q: What about the “mortality risk of lactic acidosis” value ([1]; patients) of the same compound?
A: about 0.015 per 1000 patient-years

Q: And the “gastrointestinal adverse effects, notably diarrhea” value ([1]; remit when the dosage is reduced)?
A: less than 20 % of patients

Q: What about the “reduction of GSK-3β activity compared to mdx-S control” value ([2]; DIA muscle) of the same compound?
A: 66%

Q: What about the “reduction of GSK-3β activity compared to mdx-S control” value ([2]; TA muscle) of the same compound?
A: 31%

Q: And the “proportion of smaller myofibers (CSA<1500 μm^2)” value ([3]; DIA, untreated 38%)?
A: 23%

Q: What about the focal necrosis ([3]; TA, DIA, gastrocnemius and soleus of mdx mice, 28-day metformin vs saline) of the same compound?
A: significant decline in the focal necrosis

Q: And the “proportion of smaller myofibers (CSA<1500 μm^2)” value ([3]; TA, untreated 22%)?
A: 14%

Q: What about the “fibers displaying central nuclei” value ([3]; mdx-M fibers after 28 days metformin, untreated mdx-S 55%) of the same compound?
A: ~38%

Q: And the “rotorod running time (fall latency)” value [4]?
A: significant improvement in running time

Q: And the “increase in AKT kinase activity compared to mdx-S control” value ([5]; DIA muscle)?
A: ~80%

Q: What about the “increase in AKT kinase activity compared to mdx-S control” value ([5]; TA muscle) of the same compound?
A: 83%

Q: What about the utrophin protein levels ([6]; gastrocnemius, compared to mdx-Saline control) of the same compound?
A: increased

Q: What about the β-dystroglycan protein expression [6, 12] of the same compound?
A: increased

Q: And the γ-sarcoglycan protein expression [6, 12]?
A: increased

Q: What about the “sarcolemmal distribution of β-dystroglycan” value [6, 13] of the same compound?
A: notable increase

Q: What about the “sarcolemmal distribution of γ-sarcoglycan” value [6, 13] of the same compound?
A: notable increase

Q: And the “utrophin along the extrasynaptic sarcolemma” value [6, 13]?
A: robust increase

Q: What about the “skeletal muscle glycogen content” value [7] of the same compound?
A: complete normalization of glycogen content

Q: And the GLUT4 localization ([8]; TA muscle of mdx mice, metformin treatment)?
A: restoration of GLUT4 protein to that observed in wild-type skeletal muscle

Q: What about the “myofibers positively stained for EBD” value [9] of the same compound?
A: 22%

Q: What about the “elevation in AMPK kinase activity over baseline levels in mdx-S control” value ([10]; DIA muscle) of the same compound?
A: 55%

Q: And the “elevation in AMPK kinase activity over baseline levels in mdx-S control” value ([10]; TA muscle)?
A: 75%

Q: What about the “hypoglycemia or adverse health effects” value [11] of the same compound?
A: no evidence of hypoglycemia or adverse health effects

Q: For “insulin: insulin (Sigma), 0.75 U delivered by osmotic mini-pump to mdx mice (mdx-I)”, which GSK3β kinase activity [2, 14] is on record?
A: only marginal changes

Q: And the “fiber size variability and protection against degeneration (H&E)” value ([3]; TA and DIA fibers of mdx-I)?
A: no reduction in fiber size variability and protection against degeneration

Q: And the “number of centrally located nuclei” value ([3]; mdx-I vs mdx-S)?
A: remained comparable

Q: What about the “fiber size distribution (morphometric analysis)” value ([3]; mdx-I, in particular the DIA) of the same compound?
A: no overall change

Q: What about the AKT kinase activity [5, 14] of the same compound?
A: no significant change

Q: And the GLUT4 localization ([8]; mdx mice following insulin treatment)?
A: remained localized in a perinuclear domain

Source: patent US8993633B2, “Treatment of muscle disease characterized by insulin resistance” (Fate Therapeutics, (Canada) Inc., priority 2009, dated 2015)
